Data: patent publication US20250361209A1, “CRYSTAL FORMS OF N-(3-FLUOROPHENYL)-6-(6,7-DIMETHOXYQUINOLIN-4-OXY)-3,4-DIHYDROQUINOLINE-1(2H)-CARBOXAMIDE METHANESULFONATE AND PREPARATION METHOD THEREOF” (Shanghai Yi Feng Biotechnology Co., Ltd., priority 2023, published 2025)
Read-outs that look alike come from different tables or passages of the source. Each block holds one compound with its values, some of them ahead of it.

Tests used:
[1] = Test of influencing factors of crystalline forms A, B and C (total impurity); type: physicochemical; settings: methanesulfonate
Excerpt: Example 3 Test of Influencing Factors of Crystalline Forms A, B and C

[2] = Comparison of oral absorption of K-13 (free base) and its methanesulfonate, plasma concentration-time and PK; type: in vivo, BALB/c mice; settings: 10 mg · kg^−1 PO; for concentration at 8 h / concentration at 24 h / concentration at 0 h: 10 mg · kg^−1, BALB/c mice
Excerpt: Comparison of oral absorption of K-13 (free base) and its methanesulfonate (N-(3-fluorophenyl)-6-(6. 7-dimethoxyquinolin-4-oxy)-3.4-dihydroquinoline-1(2H)-carboxamide methanesulfonate)

[3] = High temperature (60° C.), 0 day
[4] = High temperature (60° C.), 5 days
[5] = High temperature (60° C.), 10 days
[6] = Illumination (5000 + 500 lux), 0 day
[7] = Illumination (5000 + 500 lux), 5 days
[8] = Illumination (5000 + 500 lux), 10 days
[9] = Illumination (5000 + 500 lux), 30 days
[10] = BALB/c mice, analyte K-13-1, methanesulfonate

Total impurity % ([1]; High humidity (RH75%), 0 day): 0.91% | Total impurity % ([1]; High humidity (RH75%), 5 days): 0.92% | Total impurity % ([1]; High humidity (RH75%), 10 days): 0.99% | Total impurity % ([1]; High humidity (RH75%), 30 days): 1.25% | Total impurity % [1, 3]: 0.91% | Total impurity % [1, 4]: 4.50% | Total impurity % [1, 5]: 6.96% | Total impurity % [1, 6]: 0.91% | Total impurity % [1, 7]: 1.89% | Total impurity % [1, 8]: 3.70% | Total impurity % [1, 9]: 4.21%
SMILES: COc1cc2nccc(Oc3ccc4c(c3)CCCN4C(=O)Nc3cccc(F)c3)c2cc1OC [Crystalline form A, N-(3-fluorophenyl)-6-(6,7-dimethoxyquinolin-4-oxy)-3,4-dihydroquinoline-1(2H)-carboxamide methanesulfonate]

Total impurity % ([1]; High humidity (RH75%), 0 day): 0.86% | Total impurity % ([1]; High humidity (RH75%), 5 days): 1.03% | Total impurity % ([1]; High humidity (RH75%), 10 days): 1.09% | Total impurity % ([1]; High humidity (RH75%), 30 days): 1.12% | Total impurity % [1, 3]: 0.86% | Total impurity % [1, 4]: 1.00% | Total impurity % [1, 5]: 0.98% | Total impurity % [1, 6]: 0.86% | Total impurity % [1, 7]: 0.94% | Total impurity % [1, 8]: 1.12% | Total impurity % [1, 9]: 1.33%
SMILES: COc1cc2nccc(Oc3ccc4c(c3)CCCN4C(=O)Nc3cccc(F)c3)c2cc1OC [Crystalline form B, N-(3-fluorophenyl)-6-(6,7-dimethoxyquinolin-4-oxy)-3,4-dihydroquinoline-1(2H)-carboxamide methanesulfonate]

plasma Concentration of K-13-1, PO-1 ([2]; BALB/c mice, 0.083 h, animal PO-1): 29.6 ng/mL | plasma Concentration of K-13-1, PO-2 ([2]; BALB/c mice, 0.083 h, animal PO-2): 46.6 ng/mL | plasma Concentration of K-13-1, Mean ([2]; BALB/c mice, 0.083 h, mean): 38.1 ng/mL | plasma Concentration of K-13-1, PO-1 ([2]; BALB/c mice, 0.25 h, animal PO-1): 186 ng/mL | plasma Concentration of K-13-1, PO-2 ([2]; BALB/c mice, 0.25 h, animal PO-2): 215 ng/mL | plasma Concentration of K-13-1, Mean ([2]; BALB/c mice, 0.25 h, mean): 201 ng/mL | plasma Concentration of K-13-1, PO-1 ([2]; BALB/c mice, 0.5 h, animal PO-1): 480 ng/mL | plasma Concentration of K-13-1, PO-2 ([2]; BALB/c mice, 0.5 h, animal PO-2): 865 ng/mL | plasma Concentration of K-13-1, Mean ([2]; BALB/c mice, 0.5 h, mean): 673 ng/mL | plasma Concentration of K-13-1, PO-1 ([2]; BALB/c mice, 1 h, animal PO-1): 551 ng/mL | plasma Concentration of K-13-1, PO-2 ([2]; BALB/c mice, 1 h, animal PO-2): 420 ng/mL | plasma Concentration of K-13-1, Mean ([2]; BALB/c mice, 1 h, mean): 485 ng/mL | plasma Concentration of K-13-1, PO-1 ([2]; BALB/c mice, 2 h, animal PO-1): 136 ng/mL | plasma Concentration of K-13-1, PO-2 ([2]; BALB/c mice, 2 h, animal PO-2): 485 ng/mL | plasma Concentration of K-13-1, Mean ([2]; BALB/c mice, 2 h, mean): 311 ng/mL | plasma Concentration of K-13-1, PO-1 ([2]; BALB/c mice, 4 h, animal PO-1): 220 ng/mL | plasma Concentration of K-13-1, PO-2 ([2]; BALB/c mice, 4 h, animal PO-2): 395 ng/mL | plasma Concentration of K-13-1, Mean ([2]; BALB/c mice, 4 h, mean): 308 ng/mL | plasma Concentration of K-13-1, PO-1 ([2]; BALB/c mice, 24 h, animal PO-1): BLOQ | AUC0-inf ([2]; BALB/c mice, analyte K-13-1): 2894 ng·h/mL | AUC0-t ([2]; BALB/c mice, analyte K-13-1): 2870 ng·h/mL | Cmax ([2]; BALB/c mice, analyte K-13-1): 673 ng/mL | Kel ([2]; BALB/c mice, analyte K-13-1): 0.200 h⁻¹ | F (oral bioavailability) ([2]; BALB/c mice, analyte K-13-1, listed as free base): 20% | concentration at 8 h ([2]; BALB/c, mouse, plasma, po, 8 h, animal PO-1, read-out: plasma Concentration of K-13-1, PO-1): 97.2 ng/mL | concentration at 8 h ([2]; BALB/c, mouse, plasma, po, 8 h, animal PO-2, read-out: plasma Concentration of K-13-1, PO-2): 58.8 ng/mL | concentration at 8 h ([2]; BALB/c, mouse, plasma, po, 8 h, mean, read-out: plasma Concentration of K-13-1, Mean): 78 ng/mL | concentration at 24 h ([2]; BALB/c, mouse, plasma, po, 24 h, animal PO-2, read-out: plasma Concentration of K-13-1, PO-2): 4.65 ng/mL | concentration at 24 h ([2]; BALB/c, mouse, plasma, po, 24 h, mean, read-out: plasma Concentration of K-13-1, Mean): 4.65 ng/mL | half-life ([2]; BALB/c, mouse, plasma, po, 10 mg/kg, BALB/c mice, analyte K-13-1): 3.5 h | Tmax ([2]; BALB/c, mouse, plasma, po, 10 mg/kg, BALB/c mice, analyte K-13-1, read-out: Tmax): 0.5 h
SMILES: COc1cc2nccc(Oc3ccc4c(c3)CCCN4C(=O)Nc3cccc(F)c3)c2cc1OC [K-13-1, N-(3-fluorophenyl)-6-(6,7-dimethoxyquinolin-4-oxy)-3,4-dihydroquinoline-1(2H)-carboxamide]

increase of in vivo exposure AUClast versus free base ([2]; BALB/c mice): 2.46 times | increase of in vivo exposure Cmax versus free base ([2]; BALB/c mice): 3.14 times | plasma Concentration of K-13-1, PO-1 ([2]; BALB/c mice, 0.083 h, animal PO-1, methanesulfonate): 431 ng/mL | plasma Concentration of K-13-1, PO-2 ([2]; BALB/c mice, 0.083 h, animal PO-2, methanesulfonate): 414 ng/mL | plasma Concentration of K-13-1, Mean ([2]; BALB/c mice, 0.083 h, mean, methanesulfonate): 423 ng/mL | plasma Concentration of K-13-1, PO-1 ([2]; BALB/c mice, 0.25 h, animal PO-1, methanesulfonate): 2175 ng/mL | plasma Concentration of K-13-1, PO-2 ([2]; BALB/c mice, 0.25 h, animal PO-2, methanesulfonate): 2059 ng/mL | plasma Concentration of K-13-1, Mean ([2]; BALB/c mice, 0.25 h, mean, methanesulfonate): 2117 ng/mL | plasma Concentration of K-13-1, PO-1 ([2]; BALB/c mice, 0.5 h, animal PO-1, methanesulfonate): 1868 ng/mL | plasma Concentration of K-13-1, PO-2 ([2]; BALB/c mice, 0.5 h, animal PO-2, methanesulfonate): 1775 ng/mL | plasma Concentration of K-13-1, Mean ([2]; BALB/c mice, 0.5 h, mean, methanesulfonate): 1822 ng/mL | plasma Concentration of K-13-1, PO-1 ([2]; BALB/c mice, 1 h, animal PO-1, methanesulfonate): 1824 ng/mL | plasma Concentration of K-13-1, PO-2 ([2]; BALB/c mice, 1 h, animal PO-2, methanesulfonate): 1317 ng/mL | plasma Concentration of K-13-1, Mean ([2]; BALB/c mice, 1 h, mean, methanesulfonate): 1571 ng/mL | plasma Concentration of K-13-1, PO-1 ([2]; BALB/c mice, 2 h, animal PO-1, methanesulfonate): 922 ng/mL | plasma Concentration of K-13-1, PO-2 ([2]; BALB/c mice, 2 h, animal PO-2, methanesulfonate): 1319 ng/mL | plasma Concentration of K-13-1, Mean ([2]; BALB/c mice, 2 h, mean, methanesulfonate): 1121 ng/mL | plasma Concentration of K-13-1, PO-1 ([2]; BALB/c mice, 4 h, animal PO-1, methanesulfonate): 884 ng/mL | plasma Concentration of K-13-1, PO-2 ([2]; BALB/c mice, 4 h, animal PO-2, methanesulfonate): 981 ng/mL | plasma Concentration of K-13-1, Mean ([2]; BALB/c mice, 4 h, mean, methanesulfonate): 932 ng/mL | plasma Concentration of K-13-1, PO-1 ([2]; BALB/c mice, 8 h, animal PO-1, methanesulfonate): 130 ng/mL | plasma Concentration of K-13-1, PO-2 ([2]; BALB/c mice, 8 h, animal PO-2, methanesulfonate): 89.0 ng/mL | plasma Concentration of K-13-1, Mean ([2]; BALB/c mice, 8 h, mean, methanesulfonate): 109 ng/mL | plasma Concentration of K-13-1, PO-2 ([2]; BALB/c mice, 24 h, animal PO-2, methanesulfonate): BLOQ | plasma Concentration of K-13-1, Mean ([2]; BALB/c mice, 24 h, mean, methanesulfonate): BLOQ | AUC0-inf [2, 10]: 7350 ng·h/mL | AUC0-t [2, 10]: 7051 ng·h/mL | Cmax [2, 10]: 2117 ng/mL | F (oral bioavailability) [2, 10]: 50% | Kel [2, 10]: 0.364 h⁻¹ | T1/2 [2, 10]: 1.9 h | Tmax [2, 10]: 0.25 h | concentration at 0 h ([2]; BALB/c, mouse, plasma, po, animal PO-1, read-out: plasma Concentration of K-13-1, PO-1): 0 ng/mL | concentration at 0 h ([2]; BALB/c, mouse, plasma, po, animal PO-2, read-out: plasma Concentration of K-13-1, PO-2): 0 ng/mL | concentration at 0 h ([2]; BALB/c, mouse, plasma, po, mean, read-out: plasma Concentration of K-13-1, Mean): 0 ng/mL
SMILES: COc1cc2nccc(Oc3ccc4c(c3)CCCN4C(=O)Nc3cccc(F)c3)c2cc1OC [K-13-MS-1, N-(3-fluorophenyl)-6-(6,7-dimethoxyquinolin-4-oxy)-3,4-dihydroquinoline-1(2H)-carboxamide methanesulfonate]
